Results taken from article PMC7159882, “Polyunsaturated fatty acid analogues differentially affect cardiac NaV, CaV, and KV channels through unique mechanisms” (eLife, 2020).

Assays:
Format in all cases: cell-based
[1] = target: T1, Nav1.5/β1 (Homo sapiens, UniProt Q14524); test: Two-electrode voltage clamp of Nav1.5/β1 expressed in Xenopus oocytes; conditions: for INa I/I0: relative current at 0 mV
T1 construct: Nav1.5 (UniProt: Q14524.1); expressed in transfected cells; host or cells: Xenopus laevis oocytes (cRNA injection, Nav1.5:β1 2:1 by weight)
T1 sequence (Q14524 whole entry): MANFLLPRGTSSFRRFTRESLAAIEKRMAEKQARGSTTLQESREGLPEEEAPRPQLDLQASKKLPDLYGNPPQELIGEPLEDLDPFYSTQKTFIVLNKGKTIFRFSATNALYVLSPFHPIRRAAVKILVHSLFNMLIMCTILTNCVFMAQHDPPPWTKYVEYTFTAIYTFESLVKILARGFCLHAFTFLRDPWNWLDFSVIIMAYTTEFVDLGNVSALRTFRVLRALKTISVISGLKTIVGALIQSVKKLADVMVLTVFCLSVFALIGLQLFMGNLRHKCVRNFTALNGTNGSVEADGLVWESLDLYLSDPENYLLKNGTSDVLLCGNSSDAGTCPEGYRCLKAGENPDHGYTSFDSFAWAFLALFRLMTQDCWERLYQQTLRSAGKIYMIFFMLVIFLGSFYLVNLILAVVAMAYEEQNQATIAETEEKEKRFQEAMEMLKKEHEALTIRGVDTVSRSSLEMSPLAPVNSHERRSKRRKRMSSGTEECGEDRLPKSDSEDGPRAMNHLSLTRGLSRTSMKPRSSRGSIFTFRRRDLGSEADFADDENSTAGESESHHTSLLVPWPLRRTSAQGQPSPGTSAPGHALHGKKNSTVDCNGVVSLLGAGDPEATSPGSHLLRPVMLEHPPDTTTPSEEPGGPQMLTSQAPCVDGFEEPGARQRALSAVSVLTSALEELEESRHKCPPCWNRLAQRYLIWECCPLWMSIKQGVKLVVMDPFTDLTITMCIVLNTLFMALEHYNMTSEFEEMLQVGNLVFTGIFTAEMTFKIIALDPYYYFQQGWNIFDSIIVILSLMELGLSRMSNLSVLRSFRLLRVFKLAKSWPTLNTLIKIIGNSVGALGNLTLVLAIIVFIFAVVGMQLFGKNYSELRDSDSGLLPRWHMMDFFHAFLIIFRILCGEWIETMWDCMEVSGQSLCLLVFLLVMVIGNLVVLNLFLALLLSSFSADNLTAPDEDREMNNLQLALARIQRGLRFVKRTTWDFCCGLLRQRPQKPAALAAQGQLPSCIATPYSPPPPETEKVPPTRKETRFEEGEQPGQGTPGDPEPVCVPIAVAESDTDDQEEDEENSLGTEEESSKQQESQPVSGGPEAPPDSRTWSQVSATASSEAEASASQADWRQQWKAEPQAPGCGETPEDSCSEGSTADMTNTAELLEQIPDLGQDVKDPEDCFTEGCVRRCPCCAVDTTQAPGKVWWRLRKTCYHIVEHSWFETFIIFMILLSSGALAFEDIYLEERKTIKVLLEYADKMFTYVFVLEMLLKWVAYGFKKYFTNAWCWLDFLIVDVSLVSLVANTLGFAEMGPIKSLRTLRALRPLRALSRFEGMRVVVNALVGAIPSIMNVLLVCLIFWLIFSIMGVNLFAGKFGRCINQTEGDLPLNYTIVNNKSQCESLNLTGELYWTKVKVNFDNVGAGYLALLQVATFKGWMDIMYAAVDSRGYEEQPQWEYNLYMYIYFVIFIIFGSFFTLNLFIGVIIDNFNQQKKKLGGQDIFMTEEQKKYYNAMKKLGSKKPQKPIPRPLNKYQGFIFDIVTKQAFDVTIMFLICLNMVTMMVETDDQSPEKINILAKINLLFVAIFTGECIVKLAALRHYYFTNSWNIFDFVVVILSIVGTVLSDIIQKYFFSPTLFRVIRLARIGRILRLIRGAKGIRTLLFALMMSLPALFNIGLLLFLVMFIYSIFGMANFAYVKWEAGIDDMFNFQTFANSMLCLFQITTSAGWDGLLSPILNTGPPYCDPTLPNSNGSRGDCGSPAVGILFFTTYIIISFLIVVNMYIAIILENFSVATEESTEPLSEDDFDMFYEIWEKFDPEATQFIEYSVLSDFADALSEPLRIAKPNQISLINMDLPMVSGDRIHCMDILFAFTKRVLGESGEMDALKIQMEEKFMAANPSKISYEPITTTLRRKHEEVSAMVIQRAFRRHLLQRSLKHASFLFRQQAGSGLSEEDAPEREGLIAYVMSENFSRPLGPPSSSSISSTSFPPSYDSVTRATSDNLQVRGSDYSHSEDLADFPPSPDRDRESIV
T1 sequence (Q07699 19-218 partner): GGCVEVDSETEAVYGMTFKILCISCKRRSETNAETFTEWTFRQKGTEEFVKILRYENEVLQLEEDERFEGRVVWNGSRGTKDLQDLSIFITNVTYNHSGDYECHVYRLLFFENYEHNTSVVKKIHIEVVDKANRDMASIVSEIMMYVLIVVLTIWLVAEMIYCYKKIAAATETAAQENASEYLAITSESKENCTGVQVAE
Procedure: (§1) Molecular Biology cRNA encoding Kv7.1 (UniProt: P51787), KCNE1 (UniProt: P15382.1), Nav1.5 (UniProt: Q14524.1), Nav β1 (UniProt: […]), Nav β3 (UniProt: […]), Cav1.2 (GenBank: CAA84346), Cav β3 (Uniprot: P54286), Cav β2 (Uniprot: P54288), and Cav α2δ (Uniprot: P13806) were transcribed using the mMessage mMachine T7 kit (Ambion). 50 ng of cRNA was injected into defolliculated Xenopus laevis oocytes (Ecocyte, Austin, TX): For Kv7.1/KCNE1 channel expression, we injected a 3:1, weight:weight (Kv7.1:KCNE1) cRNA ratio. For Nav1.5 channel expression, we injected a 2:1, weight:weight (Nav1.5:β1) cRNA ratio. For Cav1.2 channel expression, we injected a 2:1:1, weight:weight (Cav1.2:β3:α2δ) cRNA ratio. The exact stoichiometry for channel macromolecular complexes, including α -subunits and auxiliary subunits is not clear for many ion channels. For example, there have been multiple reported stoichiometries for Kv7.1:KCNE1 determined in heterologous expression systems with some groups reporting flexible stoichiometry of 4 Kv7.1: 1–4 KCNE1 and others reporting a fixed stoichiometry of 4 Kv7.1: 2 KCNE1 ([Murray et al., 2016]; [Nakajo et al., 2010]). The ratios of cRNA of α- and auxiliary subunits that we injected in Xenopus laevis oocytes are such that all α-subunits are assumed to be in complex with auxiliary subunits. This allows a more homogenous population of ion channels with auxiliary subunits. One caveat to expressing ion channels as macromolecular complexes is that there are many other auxiliary subunits that could associate with the channel α -subunit that are present in cardiomyocytes and have the potential to alter PUFA-induced effects, but that are not being co-expressed in our experiments. In this work, we are co-expressing some of the auxiliary subunits that have been primarily reported to associate with their respective α -subunits in cardiomyocytes. Following cRNA injection, cells were incubated for 72–96 hr in standard ND96 solution (96 mM NaCl, 2 mM KCl, 1 mM MgCl2, 1.8 mM CaCl2, 5 mM HEPES; pH = 7.5) containing 1 mM pyruvate at 16°C prior to electrophysiological recordings.
(§2) Xenopus laevis oocytes were recorded in the two-electrode voltage clamp (TEVC) configuration. Recording pipettes were filled with 3 M KCl. The recording chamber was filled with ND96 (96 mM NaCl, 2 mM KCl, 1 mM MgCl2, 1.8 mM CaCl2, 5 mM HEPES; pH 7.5). For Cav1.2/β3/α2δ channel recordings, Xenopus oocytes were injected with 50 nl of 100 mM EGTA and incubated at 10°C for 30 min prior to electrophysiological recordings in order to sequester cytosolic calcium. In addition, Cav1.2/β3/α2δ channel recordings were done in Ca^2+-free solutions, using Ba^2+ as the charge carrier, to prevent calcium-dependent inactivation of Cav1.2/β3/α2δ channels. Calcium-dependent inactivation was not studied in this work, due to the presence of large calcium-activated chloride currents present in Xenopus laevis oocytes. PUFAs were obtained from Cayman Chemical (Ann Arbor, MI.) or synthesized in house (Linköping, Sweden) through methods previously described ([Bohannon et al., 2020]) and kept at −20 °C as 100 mM stock solutions in ethanol. Serial dilutions of the different PUFAs were prepared from stocks to make 0.2 μM, 0.7 μM, 2 μM, 7 μM, and 20 μM concentrations in ND96 solutions (pH = 7.5). PUFAs were perfused into the recording chamber using the Rainin Dynamax Peristaltic Pump (Model RP-1) (Rainin Instrument Co., Oakland, CA. USA).
(§3) Electrophysiological recordings were obtained using Clampex 10.3 software (Axon, pClamp, Molecular Devices). To measure Kv7.1/KCNE1 currents we apply PUFAs as the membrane potential is stepped every 30 s from −80 mV to 0 mV for 5 s before stepping to −40 mV and back to −80 mV to ensure that the PUFA effects on the current at 0 mV reached steady state. A voltage-step protocol was used to measure the current vs. voltage (I-V) relationship before PUFA application and after the PUFA effects had reached steady state for each concentration of PUFA. […]

[2] = target: T2, Kv7.1/KCNE1 (Homo sapiens, UniProt P51787); test: Two-electrode voltage clamp of Kv7.1/KCNE1 expressed in Xenopus oocytes; parameters: Fitted slope factor of conductance vs voltage relationship: unit of the concentration uncertain; conditions: for IKs I/I0: relative current at 0 mV
T2 construct: cRNA encoding Kv7.1 (UniProt: P51787), KCNE1 (UniProt: P15382.1); expressed in transfected cells; host or cells: Xenopus laevis oocytes (cRNA injection, Kv7.1:KCNE1 3:1 by weight)
Procedure: as §1
as §2, with “Serial dilutions of the different PUFAs were prepared from stocks to make 0.2 μM, 0.7 μM, 2 μM, 7 μM, and 20 μM concentrations in ND96 solutions (pH = 7.5).” left out
as §3, with “PUFA. Cells were held at −80 mV followed by a hyperpolarizing prepulse to −140 mV.” for “PUFA.”

[3] = target: T3, Cav1.2/β3/α2δ (Homo sapiens, UniProt Q13936); test: Two-electrode voltage clamp of Cav1.2/β3/α2δ expressed in Xenopus oocytes (Ba2+ as charge carrier); conditions: for ICa I/I0: relative current at 0 mV
T3 construct: expressed in transfected cells; host or cells: Xenopus laevis oocytes (cRNA injection, Cav1.2:β3:α2δ 2:1:1 by weight)
Procedure: as §1, §2, §3

Fitted slope factor of conductance vs voltage relationship ([2]; 0.2 μM): 18.7 ± 1.1 mV | Gmax/Gmax0 ([2]; 0.2 μM): 1.1 ± 0.04 | ΔV0.5 (voltage dependence of activation) ([2]; 0.2 μM): -1.5 ± 0.4 mV | IKs I/I0 ([2]; 0.2 μM): 1.1 ± 0.03 | Fitted slope factor of conductance vs voltage relationship ([2]; 0.7 μM): 18.6 ± 1.2 mV | Gmax/Gmax0 ([2]; 0.7 μM): 1.3 ± 0.1 | ΔV0.5 (voltage dependence of activation) ([2]; 0.7 μM): -5.0 ± 1.7 mV | IKs I/I0 ([2]; 0.7 μM): 1.4 ± 0.08 | Fitted slope factor of conductance vs voltage relationship ([2]; 2 μM): 18.6 ± 1.3 mV | Gmax/Gmax0 ([2]; 2 μM): 1.6 ± 0.2 | ΔV0.5 (voltage dependence of activation) ([2]; 2 μM): -17.5 ± 2.0 mV | IKs I/I0 ([2]; 2 μM): 2.9 ± 0.5 | Fitted slope factor of conductance vs voltage relationship ([2]; 7 μM): 18.1 ± 1.2 mV | Gmax/Gmax0 ([2]; 7 μM): 1.7 ± 0.1 | ΔV0.5 (voltage dependence of activation) ([2]; 7 μM): −45.3 ± 2.9 mV | Gmax/Gmax0 ([2]; 20 μM): 1.1 ± 0.9 | ΔV0.5 (voltage dependence of activation) ([2]; 20 μM): -70.5 ± 6.0 mV | IKs I/I0 ([2]; 20 μM): 3.1 ± 0.4
Structure (SMILES): CC/C=C\C/C=C\C/C=C\C/C=C\C/C=C\C/C=C\CCC(=O)NCCS(=O)(=O)O [DHA-taurine]
Gmax/Gmax0 ([1]; 0.2 μM): 1.0 ± 0.01 | ΔV0.5 (voltage dependence of inactivation) ([1]; 0.2 μM): -0.5 ± 0.3 mV | INa I/I0 ([1]; 0.2 μM): 1.0 ± 0.03 | Gmax/Gmax0 ([1]; 0.7 μM): 0.9 ± 0.01 | ΔV0.5 (voltage dependence of inactivation) ([1]; 0.7 μM): -2.6 ± 0.5 mV | INa I/I0 ([1]; 0.7 μM): 1.0 ± 0.03 | Gmax/Gmax0 ([1]; 2 μM): 0.6 ± 0.03 | ΔV0.5 (voltage dependence of inactivation) ([1]; 2 μM): -9.4 ± 1.6 mV | INa I/I0 ([1]; 2 μM): 0.7 ± 0.04 | Gmax/Gmax0 ([1]; 7 μM): 0.1 ± 0.01 | ΔV0.5 (voltage dependence of inactivation) ([1]; 7 μM): −28.5 ± 0.6 mV | Gmax/Gmax0 ([1]; 20 μM): 0.04 ± 0.01 | ΔV0.5 (voltage dependence of inactivation) ([1]; 20 μM): -63.2 ± 10.9 mV | INa I/I0 ([1]; 20 μM): 0.1 ± 0.03 | Gmax/Gmax0 ([3]; 0.2 μM): 1.0 ± 0.05 | ΔV0.5 (voltage dependence of inactivation) ([3]; 0.2 μM): 1.7 ± 0.7 mV | ICa I/I0 ([3]; 0.2 μM): 0.9 ± 0.04 | Gmax/Gmax0 ([3]; 0.7 μM): 1.1 ± 0.1 | ΔV0.5 (voltage dependence of inactivation) ([3]; 0.7 μM): 1.6 ± 0.8 mV | ICa I/I0 ([3]; 0.7 μM): 1.0 ± 0.03 | Gmax/Gmax0 ([3]; 2 μM): 1.1 ± 0.07 | ΔV0.5 (voltage dependence of inactivation) ([3]; 2 μM): 1.7 ± 1.0 mV | ICa I/I0 ([3]; 2 μM): 1.0 ± 0.03 | Gmax/Gmax0 ([3]; 7 μM): 1.1 ± 0.1 | ΔV0.5 (voltage dependence of inactivation) ([3]; 7 μM): 0.2 ± 0.8 mV | Gmax/Gmax0 ([3]; 20 μM): 0.8 ± 0.1 | ΔV0.5 (voltage dependence of inactivation) ([3]; 20 μM): -3.8 ± 0.9 mV | ICa I/I0 ([3]; 20 μM): 0.7 ± 0.1
